In patent US10059703B2, “3-alkyl-5-fluoro-4-substituted-imino-3,4-dihydropyrimidin-2(1H)-one derivatives as fungicides” (Adama Makhteshim Ltd., priority 2012, dated 2018):
Read-outs that look alike come from different tables or passages of the source.

Legend:
Septoria tritici = test: Fungicidal activity: leaf blotch of wheat, one-day protectant and three-day curative tests on wheat plants; assay type: in vivo; details: Zymoseptoria tritici
Method: Example 16: Evaluation of Fungicidal Activity: Leaf Blotch of Wheat (Mycosphaerella graminicola; anamorph: Septoria tritici; Bayer code SEPTTR)
Wheat plants (variety Yuma) were grown from seed in a greenhouse in 50% mineral soil/50% soil-less Metro mix until the first leaf was fully emerged, with 7-10 seedlings per pot. These plants were inoculated with an aqueous spore suspension of Septoria tritici either prior to or after fungicide treatments. After inoculation the plants were kept in 100% relative humidity (one day in a dark dew chamber followed by two to three days in a lighted dew chamber) to permit spores to germinate and infect the leaf. The plants were then transferred to a greenhouse for disease to develop.
(§1) The following tables present the activity of typical compounds of the present disclosure when evaluated in these experiments. The effectiveness of the test compounds in controlling disease was determined by assessing the severity of disease on treated plants, then converting the severity to percent control based on the level of disease on untreated, inoculated plants.
as §1, with “table presents” for “tables present”

[1] = 24 h, One-Day Protectant (1 DP), 100 ppm, wheat plants (variety Yuma), read-out: SEPTTR 100 PPM 1 DP (% Disease Control rating)
[2] = 72 h, Three-Day Curative (3 DC), 100 ppm, wheat plants (variety Yuma), read-out: SEPTTR 100 PPM 3 DC (% Disease Control rating)
[3] = 24 h, read-out: SEPTTR 100 PPM 1 DP (% Disease Control rating)
[4] = 72 h, read-out: SEPTTR 100 PPM 3 DC (% Disease Control rating)

melting point [°C] | SMILES | pest or weed control at 100 ppm (Septoria tritici; [1]) [%] | pest or weed control at 100 ppm (Septoria tritici; [2]) [%] | pest or weed control at 100 ppm (Septoria tritici; [3]) [%] | pest or weed control at 100 ppm (Septoria tritici; [4]) [%]
180.8 to 182.2 | Cc1ccc(S(=O)(=O)n2cc(F)/c(=N\C(=O)c3ccccc3)n(C(=O)c3ccccc3)c2=O)cc1 [Compound F37, (E)-N-(3-benzoyl-5-fluoro-2-oxo-1-tosyl-2,3-dihydropyrimidin-4(1H)-ylidene)benzamide] | 0 to 25 | 0 to 25 | – | –
185 to 186 | COC(=O)/N=c1\c(F)cn(S(=O)(=O)c2ccccc2)c(=O)n1C [Compound F45] | 0 to 25 | 0 to 25 | – | –
145 to 146 | COC(=O)/N=c1\c(F)cn(S(=O)(=O)c2ccc(C)cc2)c(=O)n1C [Compound F46] | 0 to 25 | 0 to 25 | – | –
125 to 126 | CCc1ccc(S(=O)(=O)n2cc(F)/c(=N\C(=O)OC)n(C)c2=O)cc1 [Compound F47] | 0 to 25 | 0 to 25 | – | –
116 to 117 | COC(=O)/N=c1\c(F)cn(S(=O)(=O)c2ccc(C(C)C)cc2)c(=O)n1C [Compound F48] | 0 to 25 | 0 to 25 | – | –
200 to 201 | COC(=O)/N=c1\c(F)cn(S(=O)(=O)c2cccc(C)c2)c(=O)n1C [Compound F49] | 0 to 25 | 0 to 25 | – | –
178 to 179 | COC(=O)/N=c1\c(F)cn(S(=O)(=O)c2cc(C)c(Cl)cc2C)c(=O)n1C [Compound F50] | 0 to 25 | 0 to 25 | – | –
148 to 149 | COC(=O)/N=c1\c(F)cn(S(=O)(=O)c2cc(Cl)sc2Cl)c(=O)n1C [Compound F51] | 0 to 25 | 0 to 25 | – | –
189 to 192 | Cn1c(=O)n(S(=O)(=O)c2ccccc2)cc(F)/c1=N\Cc1ccccc1F [Compound F52] | 0 to 25 | 0 to 25 | – | –
188 to 191 | COc1ccc(S(=O)(=O)n2cc(F)/c(=N\Cc3ccccc3F)n(C)c2=O)cc1 [Compound F53, 5-fluoro-4-((2-fluorobenzyl)imino)-1-((4-methoxyphenyl)sulfonyl)-3-methyl-3,4-dihydropyrimidin-2(1H)-one] | 0 to 25 | 0 to 25 | – | –
184 to 187 | Cc1ccc(S(=O)(=O)n2cc(F)/c(=N\Cc3ccccc3F)n(C)c2=O)cc1 [Compound F54] | 0 to 25 | 0 to 25 | – | –
140 to 141 | CCc1ccc(S(=O)(=O)n2cc(F)/c(=N\Cc3ccccc3F)n(C)c2=O)cc1 [Compound F55] | 0 to 25 | 0 to 25 | – | –
140 to 143 | CC(C)c1ccc(S(=O)(=O)n2cc(F)/c(=N\Cc3ccccc3F)n(C)c2=O)cc1 [Compound F56] | 0 to 25 | 0 to 25 | – | –
177 to 180 | Cc1cccc(S(=O)(=O)n2cc(F)/c(=N\Cc3ccccc3F)n(C)c2=O)c1 [Compound F57] | 0 to 25 | 0 to 25 | – | –
208 to 210 | Cc1cc(S(=O)(=O)n2cc(F)/c(=N\Cc3ccccc3F)n(C)c2=O)c(C)cc1Cl [Compound F58] | 0 to 25 | 0 to 25 | – | –
108 to 111 | Cn1c(=O)n(S(=O)(=O)c2cc(Cl)sc2Cl)cc(F)/c1=N\Cc1ccccc1F [Compound F59] | 0 to 25 | 0 to 25 | – | –

SMILES | melting point [°C] | pest or weed control at 100 ppm (Septoria tritici; [1]) [%] | pest or weed control at 100 ppm (Septoria tritici; [2]) [%] | pest or weed control at 100 ppm (Septoria tritici; [3]) [%] | pest or weed control at 100 ppm (Septoria tritici; [4]) [%]
Cn1c(=O)n(S(=O)(=O)c2ccccc2)cc(F)/c1=N\C(=O)Oc1ccccc1 [Compound F38] | 170 to 171 | – | – | 76 to 100 | 76 to 100
Cc1ccc(S(=O)(=O)n2cc(F)/c(=N\C(=O)Oc3ccccc3)n(C)c2=O)cc1 [Compound F39] | 200 to 202 | – | – | 26 to 50 | 26 to 50
CCc1ccc(S(=O)(=O)n2cc(F)/c(=N\C(=O)Oc3ccccc3)n(C)c2=O)cc1 [Compound F40] | 188 to 190 | – | – | 0 to 25 | 0 to 25
CC(C)c1ccc(S(=O)(=O)n2cc(F)/c(=N\C(=O)Oc3ccccc3)n(C)c2=O)cc1 [Compound F41] | 180 to 181 | – | – | 0 to 25 | 0 to 25
Cc1cccc(S(=O)(=O)n2cc(F)/c(=N\C(=O)Oc3ccccc3)n(C)c2=O)c1 [Compound F42] | 187 to 188 | – | – | 76 to 100 | 0 to 25
Cc1cc(S(=O)(=O)n2cc(F)/c(=N\C(=O)Oc3ccccc3)n(C)c2=O)c(C)cc1Cl [Compound F43] | 209 to 211 | – | – | 0 to 25 | 0 to 25
Cn1c(=O)n(S(=O)(=O)c2cc(Cl)sc2Cl)cc(F)/c1=N\C(=O)Oc1ccccc1 [Compound F44] | 158 to 159 | – | – | 76 to 100 | 76 to 100
